Test results as given in patent US20260042764A1, “COMPOSITIONS AND METHODS FOR INHIBITION OF KRAS” (TheRas, Inc., priority 2022, published 2026).

The compounds below were run against T1, Avi-KRAS G12D (2-169) GTP/RAF1 RBD-3xFLAG (51-131) (Homo sapiens, UniProt P01116, G12D) (assay: Raf1-KRAS G12D-GTP disruption HTRF assay (Biological Example 3)). Details: KRAS G12D, GTP-loaded.
T1 construct: Avi-KRAS G12D (2-169)
Type: binding
In short: (§1)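 50 nM Avi-KRAS (2-169) GTP/RAF1 RBD complex; 75 nM RBD-Avi; pH 7.5 Tris buffer, 10% DMSO; cpd 30 μM top, 3x, 10 pts; 1 h RT, 700 rpm; HTRF, % of DMSO.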

T1 sequence (P01116 2-169 isoform P01116-2 G12D): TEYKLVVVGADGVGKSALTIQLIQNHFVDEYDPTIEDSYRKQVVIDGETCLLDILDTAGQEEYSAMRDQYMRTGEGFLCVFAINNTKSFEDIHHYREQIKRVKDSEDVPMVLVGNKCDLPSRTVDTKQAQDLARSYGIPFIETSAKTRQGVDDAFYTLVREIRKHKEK

SMILES | IC50 [nM]
CCN(c1nc(OC[C@@H]2C[C@@H](OC)CN2C)nc2c(F)c(-c3ccc(F)c4sc(N)c(C#N)c34)c(C(F)(F)F)cc12)[C@H]1CCN(C(=O)OC)C1 [Compound 871] | 100 to 1000
CCN(c1nc(OC[C@@]23CCCN2C[C@H](F)C3)nc2c(F)c(-c3ccc(F)c4sc(N)c(C#N)c34)c(C(F)(F)F)cc12)[C@H]1CCN(C(=O)C2C[C@H]2F)[C@@H]1C (stereo partly drawn) [Compound 874] | 100 to 1000
CCN(c1nc(OC[C@@]23CCCN2C[C@H](F)C3)nc2c(F)c(-c3ccc(F)c4sc(N)c(C#N)c34)c(C(F)(F)F)cc12)[C@H]1C[C@H](COC)N(C(=O)N2CC(F)C2)C1 [Compound 875] | 1000 to 10000
CCN(c1nc(OC[C@@]23CCCN2C[C@H](F)C3)nc2c(F)c(-c3ccc(F)c4sc(N)c(C#N)c34)c(C(F)(F)F)cc12)[C@H]1C[C@@H](C)N(C(=O)C2CC2(F)F)C1 (stereo partly drawn) [Compound 877] | 100 to 1000
CCN(c1nc(OC[C@@]23CCCN2C[C@H](F)C3)nc2c(F)c(-c3ccc(F)c4sc(N)c(C#N)c34)c(C(F)(F)F)cc12)[C@H]1C[C@H](C)N(C(=O)C2CC2(F)F)C1 (stereo partly drawn) [Compound 881] | 100 to 1000

These compounds were tested against T2, Avi-KRAS G12C (2-169) GTP/RAF1 RBD-3xFLAG (51-131) (Homo sapiens, UniProt P01116, G12C) (assay: Raf1-KRAS G12C-GTP disruption HTRF assay (Biological Example 3)). Details: KRAS G12C, GTP-loaded.
T2 construct: Avi-KRAS G12C (2-169)
T2 sequence (P01116 2-169 isoform P01116-2 G12C): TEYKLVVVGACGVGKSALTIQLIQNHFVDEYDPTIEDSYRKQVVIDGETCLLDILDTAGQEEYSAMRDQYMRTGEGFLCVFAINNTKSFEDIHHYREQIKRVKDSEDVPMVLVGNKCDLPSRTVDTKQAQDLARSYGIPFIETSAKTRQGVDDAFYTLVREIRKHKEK
Type: binding
In short: as §1

SMILES | IC50 [nM]
CCN(c1nc(OC[C@@H]2C[C@@H](OC)CN2C)nc2c(F)c(-c3ccc(F)c4sc(N)c(C#N)c34)c(C(F)(F)F)cc12)[C@H]1CCN(C(=O)OC)C1 [Compound 871] | 1000 to 10000
CCN(c1nc(OC[C@@]23CCCN2C[C@H](F)C3)nc2c(F)c(-c3ccc(F)c4sc(N)c(C#N)c34)c(C(F)(F)F)cc12)[C@H]1CCN(C(=O)C2C[C@H]2F)[C@@H]1C (stereo partly drawn) [Compound 874] | 100 to 1000
CCN(c1nc(OC[C@@]23CCCN2C[C@H](F)C3)nc2c(F)c(-c3ccc(F)c4sc(N)c(C#N)c34)c(C(F)(F)F)cc12)[C@H]1C[C@H](COC)N(C(=O)N2CC(F)C2)C1 [Compound 875] | 100 to 1000
CCN(c1nc(OC[C@@]23CCCN2C[C@H](F)C3)nc2c(F)c(-c3ccc(F)c4sc(N)c(C#N)c34)c(C(F)(F)F)cc12)[C@H]1C[C@@H](C)N(C(=O)C2CC2(F)F)C1 (stereo partly drawn) [Compound 877] | 1000 to 10000
CCN(c1nc(OC[C@@]23CCCN2C[C@H](F)C3)nc2c(F)c(-c3ccc(F)c4sc(N)c(C#N)c34)c(C(F)(F)F)cc12)[C@H]1C[C@H](C)N(C(=O)C2CC2(F)F)C1 (stereo partly drawn) [Compound 881] | 100 to 1000

Each compound was assayed against T3, Avi-KRAS WT (2-169) GTP/RAF1 RBD-3xFLAG (51-131) (Homo sapiens, UniProt P01116) (assay: Raf1-KRAS WT-GTP disruption HTRF assay (Biological Example 3)). Details: KRAS WT, GTP-loaded.
T3 construct: Avi-KRAS WT (2-169)
T3 sequence (P01116 2-169 isoform P01116-2): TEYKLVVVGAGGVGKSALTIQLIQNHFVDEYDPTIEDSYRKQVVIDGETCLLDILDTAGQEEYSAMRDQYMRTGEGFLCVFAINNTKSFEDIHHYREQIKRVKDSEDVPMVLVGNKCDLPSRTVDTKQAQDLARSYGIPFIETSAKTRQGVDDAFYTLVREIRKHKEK
Type: binding
In short: as §1

SMILES | IC50 [nM]
CCN(c1nc(OC[C@@H]2C[C@@H](OC)CN2C)nc2c(F)c(-c3ccc(F)c4sc(N)c(C#N)c34)c(C(F)(F)F)cc12)[C@H]1CCN(C(=O)OC)C1 [Compound 871] | 1000 to 10000
CCN(c1nc(OC[C@@]23CCCN2C[C@H](F)C3)nc2c(F)c(-c3ccc(F)c4sc(N)c(C#N)c34)c(C(F)(F)F)cc12)[C@H]1CCN(C(=O)C2C[C@H]2F)[C@@H]1C (stereo partly drawn) [Compound 874] | 100 to 1000
CCN(c1nc(OC[C@@]23CCCN2C[C@H](F)C3)nc2c(F)c(-c3ccc(F)c4sc(N)c(C#N)c34)c(C(F)(F)F)cc12)[C@H]1C[C@H](COC)N(C(=O)N2CC(F)C2)C1 [Compound 875] | 1000 to 10000
CCN(c1nc(OC[C@@]23CCCN2C[C@H](F)C3)nc2c(F)c(-c3ccc(F)c4sc(N)c(C#N)c34)c(C(F)(F)F)cc12)[C@H]1C[C@@H](C)N(C(=O)C2CC2(F)F)C1 (stereo partly drawn) [Compound 877] | 1000 to 10000
CCN(c1nc(OC[C@@]23CCCN2C[C@H](F)C3)nc2c(F)c(-c3ccc(F)c4sc(N)c(C#N)c34)c(C(F)(F)F)cc12)[C@H]1C[C@H](C)N(C(=O)C2CC2(F)F)C1 (stereo partly drawn) [Compound 881] | 100 to 1000

What follows are compounds tested against T4, Avi-KRAS G12V (2-169) GTP/RAF1 RBD-3xFLAG (51-131) (Homo sapiens, UniProt P01116, G12V) (assay: Raf1-KRAS G12V-GTP disruption HTRF assay (Biological Example 3)). Details: KRAS G12V, GTP-loaded.
T4 construct: Avi-KRAS G12V (2-169)
T4 sequence (P01116 2-169 isoform P01116-2 G12V): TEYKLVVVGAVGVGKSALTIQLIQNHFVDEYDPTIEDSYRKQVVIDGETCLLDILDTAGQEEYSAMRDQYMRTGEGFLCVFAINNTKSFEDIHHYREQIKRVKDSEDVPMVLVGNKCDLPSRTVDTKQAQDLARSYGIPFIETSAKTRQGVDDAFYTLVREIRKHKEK
Type: binding
In short: as §1

SMILES | IC50 [nM]
CCN(c1nc(OC[C@@H]2C[C@@H](OC)CN2C)nc2c(F)c(-c3ccc(F)c4sc(N)c(C#N)c34)c(C(F)(F)F)cc12)[C@H]1CCN(C(=O)OC)C1 [Compound 871] | 1000 to 10000
CCN(c1nc(OC[C@@]23CCCN2C[C@H](F)C3)nc2c(F)c(-c3ccc(F)c4sc(N)c(C#N)c34)c(C(F)(F)F)cc12)[C@H]1CCN(C(=O)C2C[C@H]2F)[C@@H]1C (stereo partly drawn) [Compound 874] | 100 to 1000
CCN(c1nc(OC[C@@]23CCCN2C[C@H](F)C3)nc2c(F)c(-c3ccc(F)c4sc(N)c(C#N)c34)c(C(F)(F)F)cc12)[C@H]1C[C@H](COC)N(C(=O)N2CC(F)C2)C1 [Compound 875] | 100 to 1000
CCN(c1nc(OC[C@@]23CCCN2C[C@H](F)C3)nc2c(F)c(-c3ccc(F)c4sc(N)c(C#N)c34)c(C(F)(F)F)cc12)[C@H]1C[C@@H](C)N(C(=O)C2CC2(F)F)C1 (stereo partly drawn) [Compound 877] | 1000 to 10000
CCN(c1nc(OC[C@@]23CCCN2C[C@H](F)C3)nc2c(F)c(-c3ccc(F)c4sc(N)c(C#N)c34)c(C(F)(F)F)cc12)[C@H]1C[C@H](C)N(C(=O)C2CC2(F)F)C1 (stereo partly drawn) [Compound 881] | 100 to 1000

The compounds below were run on GP2d cells (KRAS G12D) (assay: Cell-based pERK HTRF assay in GP2d cell (Biological Example 2)). Details: GP2d, GP2d (KRAS G12D) cells.
In short: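 Treatment with test compounds lasted one hour in DMEM containing 10% FBS, with DMSO held at 0.25%. Dilution series: 9 points, half-log spacing, highest 1 μM or 100 nM. Lysates were incubated 4–24 h at room temperature with antibody mix, then HTRF was read at 320 nm excitation.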

SMILES | IC50 [nM]
CCN(c1nc(OC[C@@H]2C[C@@H](OC)CN2C)nc2c(F)c(-c3ccc(F)c4sc(N)c(C#N)c34)c(C(F)(F)F)cc12)[C@H]1CCN(C(=O)OC)C1 [Compound 871] | < 100
CCN(c1nc(OC[C@@]23CCCN2C[C@H](F)C3)nc2c(F)c(-c3ccc(F)c4sc(N)c(C#N)c34)c(C(F)(F)F)cc12)[C@H]1CCN(C(=O)C2C[C@H]2F)[C@@H]1C (stereo partly drawn) [Compound 874] | < 100
CCN(c1nc(OC[C@@]23CCCN2C[C@H](F)C3)nc2c(F)c(-c3ccc(F)c4sc(N)c(C#N)c34)c(C(F)(F)F)cc12)[C@H]1C[C@H](COC)N(C(=O)N2CC(F)C2)C1 [Compound 875] | < 100
CCN(c1nc(OC[C@@]23CCCN2C[C@H](F)C3)nc2c(F)c(-c3ccc(F)c4sc(N)c(C#N)c34)c(C(F)(F)F)cc12)[C@H]1C[C@@H](C)N(C(=O)C2CC2(F)F)C1 (stereo partly drawn) [Compound 877] | < 100
CCN(c1nc(OC[C@@]23CCCN2C[C@H](F)C3)nc2c(F)c(-c3ccc(F)c4sc(N)c(C#N)c34)c(C(F)(F)F)cc12)[C@H]1C[C@H](C)N(C(=O)C2CC2(F)F)C1 (stereo partly drawn) [Compound 881] | < 100

Each compound was assayed on SW620 cells (KRAS G12V) (assay: Cell-based pERK HTRF assay in SW620 cell (Biological Example 4)). Details: Homo sapiens, SW-620, SW620 (KRAS G12V) cells.
In short: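 SW620 cells were treated for 4 h with compound in a 9-point half-log series from 1 μM top (0.25% DMSO), then lysed. Phospho-ERK was detected by HTRF with d2 and Eu cryptate antibodies after 4–24 h at room temperature, read at 615 nm emission.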

SMILES | IC50 [nM]
CCN(c1nc(OC[C@@H]2C[C@@H](OC)CN2C)nc2c(F)c(-c3ccc(F)c4sc(N)c(C#N)c34)c(C(F)(F)F)cc12)[C@H]1CCN(C(=O)OC)C1 [Compound 871] | < 100
CCN(c1nc(OC[C@@]23CCCN2C[C@H](F)C3)nc2c(F)c(-c3ccc(F)c4sc(N)c(C#N)c34)c(C(F)(F)F)cc12)[C@H]1CCN(C(=O)C2C[C@H]2F)[C@@H]1C (stereo partly drawn) [Compound 874] | < 100
CCN(c1nc(OC[C@@]23CCCN2C[C@H](F)C3)nc2c(F)c(-c3ccc(F)c4sc(N)c(C#N)c34)c(C(F)(F)F)cc12)[C@H]1C[C@H](COC)N(C(=O)N2CC(F)C2)C1 [Compound 875] | < 100
CCN(c1nc(OC[C@@]23CCCN2C[C@H](F)C3)nc2c(F)c(-c3ccc(F)c4sc(N)c(C#N)c34)c(C(F)(F)F)cc12)[C@H]1C[C@@H](C)N(C(=O)C2CC2(F)F)C1 (stereo partly drawn) [Compound 877] | < 100
CCN(c1nc(OC[C@@]23CCCN2C[C@H](F)C3)nc2c(F)c(-c3ccc(F)c4sc(N)c(C#N)c34)c(C(F)(F)F)cc12)[C@H]1C[C@H](C)N(C(=O)C2CC2(F)F)C1 (stereo partly drawn) [Compound 881] | < 100
